{"source": "paper PMC7044277", "about": "(Nature Communications, 2020)", "key": {"DRD3 F1063.28A [1]": {"target": "T1, DRD3 F1063.28A (Homo sapiens, UniProt P35462, F106A)", "T1 sequence (P35462 whole entry F106A)": "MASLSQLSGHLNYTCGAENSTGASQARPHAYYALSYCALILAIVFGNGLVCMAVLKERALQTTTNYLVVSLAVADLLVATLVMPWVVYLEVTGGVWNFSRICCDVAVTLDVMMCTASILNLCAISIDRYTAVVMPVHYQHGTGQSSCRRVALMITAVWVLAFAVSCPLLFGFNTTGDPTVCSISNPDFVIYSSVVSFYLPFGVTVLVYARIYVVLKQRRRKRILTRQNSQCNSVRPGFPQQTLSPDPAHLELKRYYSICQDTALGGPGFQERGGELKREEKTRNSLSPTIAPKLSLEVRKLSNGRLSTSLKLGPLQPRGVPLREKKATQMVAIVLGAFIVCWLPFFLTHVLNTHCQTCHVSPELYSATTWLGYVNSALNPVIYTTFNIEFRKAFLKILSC", "assay": "biochemical", "format": "binding", "details": "DRD3 F1063.28A; read-out: Ki"}, "DRD4 (D4.4 variant) [2]": {"target": "T2, DRD4 (D4.4 variant) (Homo sapiens, UniProt P21917)", "T2 sequence (P21917 1-419)": "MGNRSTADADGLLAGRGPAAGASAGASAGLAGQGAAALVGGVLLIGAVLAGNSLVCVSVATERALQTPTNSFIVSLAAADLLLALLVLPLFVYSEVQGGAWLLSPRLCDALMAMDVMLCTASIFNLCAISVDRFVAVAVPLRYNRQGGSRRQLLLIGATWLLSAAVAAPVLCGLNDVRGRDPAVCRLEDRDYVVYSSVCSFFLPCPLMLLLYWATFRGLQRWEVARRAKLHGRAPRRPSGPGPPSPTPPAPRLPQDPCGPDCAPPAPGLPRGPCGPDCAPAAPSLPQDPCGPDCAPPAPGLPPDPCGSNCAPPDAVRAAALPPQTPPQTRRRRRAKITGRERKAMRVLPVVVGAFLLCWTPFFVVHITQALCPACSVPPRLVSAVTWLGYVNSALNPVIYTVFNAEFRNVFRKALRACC", "assay": "Gαi/o-mediated cAMP inhibition (GloSensor)", "format": "cell-based", "details": "DRD4; agonist, cAMP inhibition; read-out: EC50 ± SEM"}, "[3]": {"target": "T3, DRD4 (D4.4 variant) wild-type (Homo sapiens, UniProt P21917)", "T3 sequence (P21917 1-419)": "T2 sequence (P21917 1-419)", "assay": "Radioligand competition binding, [3H]-N-methylspiperone", "details": "DRD4; [3H]-methylspiperone (0.8-1.0 nM); read-out: Ki"}, "DRD2 F1103.28A [4]": {"target": "T4, DRD2 F1103.28A (Homo sapiens, UniProt P14416, F110A)", "T4 sequence (P14416 whole entry F110A)": "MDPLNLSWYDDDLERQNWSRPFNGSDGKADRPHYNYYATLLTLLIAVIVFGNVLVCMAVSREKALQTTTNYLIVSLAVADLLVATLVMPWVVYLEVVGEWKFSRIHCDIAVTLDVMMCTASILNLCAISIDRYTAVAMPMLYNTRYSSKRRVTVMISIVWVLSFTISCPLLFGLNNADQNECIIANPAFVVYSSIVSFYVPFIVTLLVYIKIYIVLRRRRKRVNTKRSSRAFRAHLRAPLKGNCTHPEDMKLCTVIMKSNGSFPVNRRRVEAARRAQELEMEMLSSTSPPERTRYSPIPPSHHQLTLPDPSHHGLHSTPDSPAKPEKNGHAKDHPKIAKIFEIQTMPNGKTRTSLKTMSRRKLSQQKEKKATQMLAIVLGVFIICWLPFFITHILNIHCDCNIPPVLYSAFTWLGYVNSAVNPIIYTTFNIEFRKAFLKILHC", "format": "binding", "design": "expressed in transfected cells; host or cells: HEK293T (ATCC CRL-11268)", "details": "DRD2 F1103.28A; read-out: Ki"}, "DRD2 (D2 long receptor) [5]": {"target": "T5, DRD2 (D2 long receptor) (Homo sapiens, UniProt P14416)", "T5 sequence (P14416 whole entry)": "as the sequence (P14416 whole entry F110A) above, with A110F counted along it", "assay": "β-arrestin2 recruitment (Tango), HTLA cells", "format": "cell-based", "details": "for response, Fig_S11e dose-response source data: replicate values"}, "DRD3": {"target": "DRD3 (Homo sapiens, UniProt P35462)", "sequence (P35462 whole entry)": "as the sequence (P35462 whole entry F106A) above, with A106F counted along it", "assay": "β-arrestin2 recruitment (Tango)", "format": "cell-based", "details": "DRD3; Tango; read-out: EC50 ± SEM"}, "DRD2 F1103.28L [6]": {"target": "T6, DRD2 F1103.28L (Homo sapiens, UniProt P14416, F110L)", "T6 construct": "expressed in transfected cells; host or cells: HEK293T (ATCC CRL-11268)", "T6 sequence (P14416 whole entry F110L)": "as the sequence (P14416 whole entry F110A) above, with A110L counted along it", "assay": "β-arrestin2 recruitment (Tango), mutant", "format": "cell-based"}, "DRD2 (D2 long receptor) [7]": {"target": "T5, DRD2 (D2 long receptor)", "assay": "Gαi/o-mediated cAMP inhibition (GloSensor split-luciferase cAMP reporter), HEK293T;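 also: compounds applied 15 min at room temperature, then luciferin plus 400 nM isoproterenol to raise cAMP through endogenous β2-adrenergic receptors, luminescence read 15 min later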", "format": "cell-based", "details": "for response, Fig_S11d dose-response source data: replicate values"}, "DRD3 F1063.28A [8]": {"target": "T1, DRD3 F1063.28A", "assay": "cell-based", "format": "cell-based", "details": "DRD3 F1063.28A; Tango; read-out: EC50 ± SEM"}, "DRD2 F1103.28L [9]": {"target": "T6, DRD2 F1103.28L", "assay": "Gαi/o-mediated cAMP inhibition (GloSensor), mutant", "format": "cell-based", "details": "DRD2 F1103.28L (b138 head prints DRD2 F1063.28L)"}, "DRD3 wild-type": {"target": "DRD3 wild-type (Homo sapiens, UniProt P35462)", "sequence (P35462 whole entry)": "as the sequence (P35462 whole entry F106A) above, with A106F counted along it", "assay": "Radioligand competition binding, [3H]-N-methylspiperone"}, "DRD2 F1103.28A [10]": {"target": "T4, DRD2 F1103.28A", "assay": "Gαi/o-mediated cAMP inhibition (GloSensor), mutant", "format": "cell-based", "design": "expressed in transfected cells; host or cells: HEK293T (ATCC CRL-11268)"}, "DRD2 F1103.28A [11]": {"target": "T4, DRD2 F1103.28A", "assay": "β-arrestin2 recruitment (Tango), mutant", "format": "cell-based", "design": "expressed in transfected cells; host or cells: HEK293T (ATCC CRL-11268)"}, "DRD4 (D4.4 variant) [12]": {"target": "T2, DRD4 (D4.4 variant)", "assay": "β-arrestin2 recruitment (Tango)", "format": "cell-based", "details": "DRD4; Tango; read-out: EC50 ± SEM"}, "[13]": {"target": "DRD2 (D2 long receptor) wild-type (Homo sapiens, UniProt P14416)", "sequence (P14416 whole entry)": "as the sequence (P14416 whole entry F110A) above, with A110F counted along it", "assay": "Radioligand competition binding, [3H]-N-methylspiperone, HEK293T membranes", "details": "DRD2; [3H]-methylspiperone (0.8-1.0 nM); read-out: Ki"}}, "note": "Values joined by “and” are separate entries in the source; they are usually repeats but may differ in a detail not shown here. Equal entries are not always repeated."}
{"smiles": "CCOc1cccc2cc(C(C)NCC3(O)CCC3)oc12.Cl", "note": "(centres unmarked) [O4LE4]", "values": [{"measurement": "Ki", "setting": "DRD3 F1063.28A [1]", "result": "> 10", "unit": "µM"}, {"measurement": "EC50", "setting": "DRD4 (D4.4 variant) [2]", "result": "> 10", "unit": "µM"}, {"measurement": "Ki", "setting": "[3]", "result": "> 10", "unit": "µM"}, {"measurement": "Ki", "setting": "DRD2 F1103.28A [4]", "result": "> 10", "unit": "µM"}, {"measurement": "Emax relative to quinpirole response", "setting": "DRD2 (D2 long receptor) [5]; DRD2, Tango", "result": 31.72, "unit": "%"}, {"measurement": "EC50", "setting": "DRD2 (D2 long receptor) [5]; DRD2, β-arrestin2 recruitment (Tango), read-out: EC50 ± SEM", "result": "4.89 ± 0.671", "unit": "µM"}, {"measurement": "response, Fig_S11e dose-response source data", "setting": "DRD2 (D2 long receptor) [5]; Log[Drug] -6.52", "result": 6.042}, {"measurement": "response, Fig_S11e dose-response source data", "setting": "DRD2 (D2 long receptor) [5]; Log[Drug] -7", "result": "4.575 and 5.092 and 4.213 and 4.207 and 4.48"}, {"measurement": "response, Fig_S11e dose-response source data", "setting": "DRD2 (D2 long receptor) [5]; Log[Drug] -7.52", "result": "3.784 and 4.2108 and 4.594 and 4.116 and 3.67"}, {"measurement": "response, Fig_S11e dose-response source data", "setting": "DRD2 (D2 long receptor) [5]; Log[Drug] -8", "result": "3.831 and 3.706 and 4.29 and 4.002 and 5.34"}, {"measurement": "response, Fig_S11e dose-response source data", "setting": "DRD2 (D2 long receptor) [5]; Log[Drug] -8.52", "result": "4.064 and 3.966 and 4.203 and 4.282 and 4.286"}, {"measurement": "response, Fig_S11e dose-response source data", "setting": "DRD2 (D2 long receptor) [5]; Log[Drug] -9", "result": "3.882 and 3.744 and 4.042 and 3.918 and 3.839"}, {"measurement": "response, Fig_S11e dose-response source data", "setting": "DRD2 (D2 long receptor) [5]; Log[Drug] -9.52", "result": "3.68 and 4.032 and 4.215 and 3.926 and 3.7929"}, {"measurement": "response, Fig_S11e dose-response source data", "setting": "DRD2 (D2 long receptor) [5]; Log[Drug] -10", "result": "3.326 and 3.898 and 4.025 and 3.996"}, {"measurement": "response, Fig_S11e dose-response source data", "setting": "DRD2 (D2 long receptor) [5]; Log[Drug] -10.52", "result": "3.698 and 4.067 and 4.341 and 4.225 and 3.808"}, {"measurement": "response, Fig_S11e dose-response source data", "setting": "DRD2 (D2 long receptor) [5]; Log[Drug] -11", "result": "4.084 and 3.675 and 4.011 and 3.975 and 3.611"}, {"measurement": "response, Fig_S11e dose-response source data", "setting": "DRD2 (D2 long receptor) [5]; Log[Drug] -11.52", "result": "3.79 and 4.079 and 4.55 and 4.262 and 4.155"}, {"measurement": "response, Fig_S11e dose-response source data", "setting": "DRD2 (D2 long receptor) [5]; Log[Drug] -12", "result": "5.029 and 3.661 and 4.455 and 4.071 and 4.046"}, {"measurement": "EC50", "setting": "DRD3", "result": "> 10", "unit": "µM"}, {"measurement": "EC50", "setting": "DRD2 F1103.28L [6]", "result": "> 10", "unit": "µM"}, {"measurement": "EC50", "setting": "DRD2 (D2 long receptor) [7]; DRD2, agonist, Gαi/o-mediated cAMP inhibition, read-out: EC50 ± SEM", "result": "> 10", "unit": "µM"}, {"measurement": "response, Fig_S11d dose-response source data", "setting": "DRD2 (D2 long receptor) [7]; Log[Drug] -5", "result": "88.7746 and 78.3782 and 91.7272 and 89.26 and 93.9579 and 91.5672"}, {"measurement": "response, Fig_S11d dose-response source data", "setting": "DRD2 (D2 long receptor) [7]; Log[Drug] -5.52", "result": "76.2939 and 86.2437 and 82.5466 and 72.7587 and 77.8913 and 84.3113"}, {"measurement": "response, Fig_S11d dose-response source data", "setting": "DRD2 (D2 long receptor) [7]; Log[Drug] -6", "result": "73.2172 and 67.3366 and 60.3892 and 68.228 and 67.275 and 64.901"}, {"measurement": "response, Fig_S11d dose-response source data", "setting": "DRD2 (D2 long receptor) [7]; Log[Drug] -6.52", "result": "64.6321 and 59.5207 and 69.0487 and 71.8726 and 63.9982 and 65.6366"}, {"measurement": "response, Fig_S11d dose-response source data", "setting": "DRD2 (D2 long receptor) [7]; Log[Drug] -7", "result": "48.9755 and 46.0724 and 53.9876 and 53.6995 and 51.8772 and 46.0423"}, {"measurement": "response, Fig_S11d dose-response source data", "setting": "DRD2 (D2 long receptor) [7]; Log[Drug] -7.52", "result": "42.028 and 41.6806 and 36.1226 and 35.9109 and 33.9715 and 35.5263"}, {"measurement": "response, Fig_S11d dose-response source data", "setting": "DRD2 (D2 long receptor) [7]; Log[Drug] -8", "result": "31.6316 and 34.088 and 41.4325 and 32.2829 and 31.564 and 29.1733"}, {"measurement": "response, Fig_S11d dose-response source data", "setting": "DRD2 (D2 long receptor) [7]; Log[Drug] -8.52", "result": "10.5658 and 5.306 and 29.9195 and 26.7491 and 32.2996 and 23.9905"}, {"measurement": "response, Fig_S11d dose-response source data", "setting": "DRD2 (D2 long receptor) [7]; Log[Drug] -9", "result": "29.0014 and 17.2156 and 19.2005 and 25.2611"}, {"measurement": "response, Fig_S11d dose-response source data", "setting": "DRD2 (D2 long receptor) [7]; Log[Drug] -9.52", "result": "13.8163 and 7.489 and 22.6246 and 25.1441 and 33.3529 and 8.96"}, {"measurement": "response, Fig_S11d dose-response source data", "setting": "DRD2 (D2 long receptor) [7]; Log[Drug] -10", "result": "3.445 and 9.573 and 23.9738 and 15.1965 and 19.209"}, {"measurement": "response, Fig_S11d dose-response source data", "setting": "DRD2 (D2 long receptor) [7]; Log[Drug] -10.52", "result": "10.9876 and 14.9328 and 18.3073 and 10.6825 and 15.9488"}, {"measurement": "response, Fig_S11d dose-response source data", "setting": "DRD2 (D2 long receptor) [7]; Log[Drug] -11", "result": "8.655 and 3.048 and 14.6949 and 5.45 and 17.0857"}, {"measurement": "response, Fig_S11d dose-response source data", "setting": "DRD2 (D2 long receptor) [7]; Log[Drug] -11.52", "result": "13.0471 and 8.407 and 20.4163"}, {"measurement": "response, Fig_S11d dose-response source data", "setting": "DRD2 (D2 long receptor) [7]; Log[Drug] -12", "result": "4.834 and -8.7134 and -10.8678 and -0.937"}, {"measurement": "EC50", "setting": "DRD3 F1063.28A [8]", "result": "> 10", "unit": "µM"}, {"measurement": "EC50", "setting": "DRD2 F1103.28L [9]", "result": "> 10", "unit": "µM"}, {"measurement": "Ki", "setting": "DRD3 wild-type; DRD3, [3H]-methylspiperone (0.8-1.0 nM), read-out: Ki", "result": 4.07, "unit": "µM"}, {"measurement": "pKi ± SEM", "setting": "DRD3 wild-type; DRD3 wild-type", "result": "5.39±0.09"}, {"measurement": "EC50", "setting": "DRD2 F1103.28A [10]", "result": "> 10", "unit": "µM"}, {"measurement": "EC50", "setting": "DRD2 F1103.28A [11]", "result": "> 10", "unit": "µM"}, {"measurement": "EC50", "setting": "DRD4 (D4.4 variant) [12]", "result": "> 10", "unit": "µM"}, {"measurement": "Ki", "setting": "[13]", "result": "> 10", "unit": "µM"}]}
